“Also recorded” adds a separate entry of the source.
Experiments:
Type in all cases: cell-based
isolated rat adipocytes [1] = test: Leptin secretion/production by isolated cultured rat adipocytes (RIA)
Experimental: (§1) Cell isolation/preparation: Adipocytes are prepared from epididymal fat pads from male Sprague-Dawley rats weighing 300-600 g. Epididymal fat depots are resected from halothane anesthetized rats under aseptic conditions and adipocytes are isolated by collagenase digestion by the Rodbell method (Rodbell M. Metabolism of isolated fat cells. I. Effects of hormones on glucose metabolism and lipolysis. J Biol Chem. 1964; 239: 375-380), with minor modifications as previously described (Mueller W M, Gregoire F M, Stanhope K L, Mobbs C V, Mizuno T M, Warden C H, Stem J S, Havel P J. Evidence that glucose metabolism regulates leptin secretion from isolated adipocytes. Endocrinology 139: 551-558, 1998; Mueller W M, Stanhope K L, Gregoire F, Evans J L, Havel P J. Effects of metformin and vanadium on leptin secretion from cultured rat adipocytes. Obesity Res. 8: 530-539, 2000; Medina E A, Stanhope K L, Mizuno T M, Mobbs C V, Gregoire F, Hubbard N E, Erickson K L, Havel P J. Effects of tumor necrosis factor alpha on leptin secretion and gene expression: relationship to changes of glucose metabolism in isolated rat adipocytes. Int J Obes Relat Metab Disord. 23: 896-903, 1999.). The isolated adipocytes are then incubated for 30 minutes at 37 C before being plated and cultured on Matrigel-coated plates.
(§2) Adipocyte Culture: Adipocytes are maintained in culture anchored to a basement membrane matrix (Matrigel, Becton Dickinson, Franklin Lakes, N.J.) or collagen from Cohesion Technologies, (Palo Alto, Calif.). Although all in vitro systems have inherent advantages and disadvantages, advantages of this system compared with cultures containing free-floating adipocytes are that the matrix simulates their normal basement membrane attachment and that the cells are maintained in close proximity to each other, allowing direct cell to cell contact. Together the cell contact and basement membrane attachment help to maintain differentiation, since adipocytes have a strong tendency to dedifferentiate in long-term (>24 h) culture. In addition, the matrix and the small amount of serum in the media both contain growth factors, which are also likely to help in maintaining cell differentiation. Furthermore, the adipocytes in this system are not exposed to toxic levels of oxygen at the interface of the media and the incubator atmosphere, as opposed to free-floating adipocytes which aggregate at the surface of the media. An advantage of the system over those containing minced adipose tissue is that all of the cells in the culture are equally exposed to the nutrients and the oxygen dissolved in the media. Thus, although clearly different from the in vivo situation, this system provides a more physiological environment than most systems for maintaining adipocytes in long-term culture.
(§3) In culturing each suspension, Matrigel is first thawed on ice to a liquid and uniformly applied to the surface of culture dishes (300 μl Matrigel/35 mm well). After the incubation period, 150 μl of the adipocyte suspension (2:1 ratio of packed cells to media) are plated on the Matrigel or collagen matrix. Adipocytes from each suspension are thoroughly mixed with a transfer pipette before plating to insure that a similar number adipocytes with a similar size distribution are added to the control and experimental wells for each suspension. The warmth of the added cells and buffer causes the Matrigel to gel around the adipocytes, or the neutralization of the acidic pH of the collagen solution to 7.0 solidifies the collagen, and both of these techniques effectively anchor the adipocytes to the culture dish. After a 30 minute incubation at 37° C., 2 ml of warm culture medium is added. The cells are maintained in an incubator at 37° C. for 96 hours with 6% CO2. Aliquots of adipocytes from each animal are divided into wells, with the different concentrations of insulin or other agents to be tested. In each plate an appropriate control well contains adipocytes from the same animal. […]

isolated rat adipocytes [2] = test: Lactate production and proportion of glucose anaerobically metabolized to lactate in isolated cultured rat adipocytes
Experimental: as §1, §2, §3

isolated rat adipocytes [3] = test: Glucose oxidation: incorporation of 14C-glucose into CO2 by isolated rat adipocytes
Experimental: Substrate Oxidation: Oxidation is measured using a modification of the method of Rodbell (Rodbell, 1964) and a modification of the cell culture system described by Bottcher and Furst (Bottcher, 1996). Briefly, adipocytes are isolated, counted and sized as previously described. Adipocytes are plated as described except they are placed in a sterile 20 ml scintillation vial instead of a well. Two ml of treatment media containing [U-^14C]-substrate (0.3 uCi/ml; glucose, fatty acids, malate, fumarate, pyruvate) is added to the vials. The vials are filled with 95% O2-5% CO2 gas and capped with rubber stoppers fitted with a hanging center well. Each well contains a 2×8 cm strip of Whatman No. 1 paper. Vials are maintained at 37° C. for 48 hr. After 48 hr, a sample of media is removed from each vial using a 4 inch, 23 gauge needle. Using another syringe and 23 gauge needle, 200 ul of sodium benzethonium is placed onto the paper strip and hanging well to capture CO2. Concentrated sulfuric acid is added to the vial in order to lyse cells and liberate all CO2 from the collagen matrix. After 24 hours, the hanging well and paper are transferred to another vial containing scintillation fluid and counted. The data are expressed as % DPM recovered as CO2 of the total DPM remaining in the media at 48 hours and as micromoles of substrate oxidized over time.

isolated rat adipocytes [4] = test: Glucose utilization (uptake) by isolated cultured rat adipocytes; conditions: for effect on glucose utilization (in words): insulin 0.16 to 1.6 nM
Experimental: as §1, §2, §3

isolated rat adipocytes [5] = test: Incorporation of glucose carbon into triglyceride in cultured adipocytes
Experimental: Incorporation of Glucose Carbon into Triglyceride: To measure glucose incorporation into triglyceride, cultures are exposed to media containing 0.01 uCi/ml of ^14C-glucose. After 96 hr, media and extracellular lipid is removed from the well and methanol added. Then scrape the collagen-cell matrix from the well and transfer into a 50 ml glass tube. Rinse the well and scrape again in methanol to assure complete transfer of cells. Total triglycerides will be extracted using the Folch method (Folch, 1957). An aliquot of the lipid extract will be placed into vials containing scintillation fluid then radioactivity will be measured.
The first measurement is used to calculate the amount of glucose incorporated into triglycerides. Another aliquot of the lipid extract is placed into pre-weighed aluminum pans to determine the total amount of triglyceride per well. The remaining lipid is saponified and acidified to separate the glycerol and fatty acids. An aliquot of the lipid extract is placed into vials containing scintillation fluid and counted. This second count represents the ^14C-glucose incorporation into fatty acids. By subtraction, the amount that was incorporated into triglyceride though glycerol is also determined. Glucose incorporation into triglyceride and into the fatty acid portion of the triglyceride are calculated by multiplying disintegration per min by total ug of glucose/well over the total DPM/well.

[6] = DTNB 100.0 μM + insulin 0.48 nM vs control (insulin only)
[7] = DTNB 100.0 μM + insulin 0.48 nM, isolated rat adipocytes, 96 h culture
[8] = DTNB 100 μM, NEM 0.1 μM, DCA 2 mM

## O=C(O)c1cc(SSc2ccc([N+](=O)[O-])c(C(=O)O)c2)ccc1[N+](=O)[O-] [DTNB, 5,5′-Dithiobis(2-nitrobenzoate)]
Isolated rat adipocytes [1]; [6]
  % ΔLeptin Produced over 96 h: +57.3 ± 5.8%
  % Δ[Leptin] (ng/ml) at 96 h: +60.2 ± 8.3%
  Change in Parameter: Leptin (ng) Produced over 96 h: +18.4 ± 2.3 ng
  Change in Parameter: [Leptin] (ng/ml) at 96 h: +6.3 ± 0.8 ng/ml
Isolated rat adipocytes [1]; [7]
  Leptin (ng) Produced over 96 h: 55.6 ± 2.9 ng
  [Leptin] (ng/ml) at 96 h: 17.2 ± 0.9 ng/mL
Isolated rat adipocytes [1]; PDH kinase inhibitors DTNB, NEM, DCA, cultured adipocytes
  effect on leptin production/secretion (in words): most potent stimulator; also recorded: increase
Isolated rat adipocytes [1]; PDH kinase inhibitors vs control: DTNB 100 μM, NEM 0.1 μM, DCA 2 mM, cultured adipocytes
  increase of leptin production/secretion: approximately 60%
Isolated rat adipocytes [2]; [6]
  Change in Parameter: Glucose to Lactate (%): −9.5 ± 1.0%
  Change in Parameter: Lactate Produced (μg) over 96 h: -53 ± 25 µg
Isolated rat adipocytes [2]; [7]
  Glucose to Lactate (%): 13.1 ± 1.4%
  Lactate Produced (μg) over 96 h: 179 ± 22 µg
Isolated rat adipocytes [2]; [8]
  effect on glucose not converted to lactate or incorporated into TG (OTHER; glucose flux into oxidation), by subtraction (in words): increased
  effect on proportion of glucose anaerobically metabolized to lactate (in words): decreased
Isolated rat adipocytes [2]; DTNB 100 μM, NEM 0.1 μM, DCA 0.1 to 5.0 mM
  effect on lactate production (in words): without any increase
Isolated rat adipocytes [3]; DTNB (50 μM in FIG. 20) and DCA (2 mM), percent of control
  effect on absolute and proportional glucose oxidation, labeled glucose into CO2 (in words): increase
Isolated rat adipocytes [4]; [6]
  Change in Parameter: Glucose Uptake (μg) over 96 h: +348 ± 114 μg
Isolated rat adipocytes [4]; [7]
  Glucose Uptake (μg) over 96 h: 1384 ± 94 µg
Isolated rat adipocytes [4]; [8]
  effect on total / insulin-mediated glucose utilization (in words): increased
Isolated rat adipocytes [5]; [8]
  effect on proportion of glucose incorporated into TG (in words): without affecting

## insulin
Isolated rat adipocytes [1]; insulin 0.16 to 1.6 nM
  effect on leptin secretion (in words): concentration-dependent increases; also recorded: concentration dependent increase
Isolated rat adipocytes [2]; insulin 0.16 to 1.6 nM
  effect on proportion of glucose converted to lactate (in words): decreases
  effect on proportion of glucose not converted to lactate or triglyceride (OTHER), by subtraction (in words): increases
Isolated rat adipocytes [3]; insulin 1.6 nM
  increase of proportional oxidation of glucose: 43.6±10.6%
Isolated rat adipocytes [3]; insulin 1.6 nM, n=18
  effect on amount of glucose oxidized to CO2 (in words): doubles; also recorded: markedly increases
Isolated rat adipocytes [4]
  effect on glucose utilization (in words): concentration dependent increase
Isolated rat adipocytes [4]; listed as Insulin
  effect on glucose utilization (in words): increases
Isolated rat adipocytes [5]; insulin 0.16 to 1.6 nM, listed as Insulin
  effect on proportional incorporation of glucose into triglyceride (in words): does not affect; also recorded: does not alter

Source: patent publication US20070203225A1, “METHOD OF INCREASING ENDOGENOUS ADIPONECTIN PRODUCTION AND LEPTIN PRODUCTION” (priority 2001, published 2007)
